# “Also recorded” adds a separate entry of the source.
# Tests used:
# [1] = test system: E13.5 Rat embryonic pancreases; assay: Real-time PCR of gene expression in cultured embryonic pancreases; format: cell-based
# From the text: (§1) Pregnant Wistar rats were purchased from the Janvier Breeding centre (CERJ, LeGenet, France). The first day postcoitum was taken as embryonic day (E) 0.5. Pregnant rats were killed with CO2 asphyxiation according to guidelines issued by the French Animal Care Committee. Dorsal pancreatic buds from E13.5 rat embryos were dissected as described previously (Miralles et al., 1998). Briefly, the stomach, pancreas and a small portion of the intestine were dissected together, and then the pancreas primordium was isolated.
# (§2) Dorsal pancreatic rudiments were cultured on 0.45 μm filters (Millipore) at the air-medium interface in a 35 mm sterile Petri dishes containing 2 ml RPMI-1640 medium (Invitrogen) supplemented with 100 U/ml penicillin, 100 μg/ml streptomycin, 10 mmol/L HEPES, 2 mmol/L L-glutamine, 1× non-essential aminoacids (Invitrogen) and 10% heat-inactivated fetal calf serum (HyClone, Logan, Utah, USA). Glibenclamide (MP Biomedical) and nifedipine (Sigma), used at the indicated concentrations, were first dissolved as concentrated solutions in dimethylsulfoxide DMSO (Sigma), the final concentration of DMSO in the culture medium was less than 0.5% (vol/vol). The culture medium was changed every day. Glibenclamide and nifedipine were added to the media daily. The cultures were incubated at 37° C. in a humidified atmosphere composed of 95% air and 5% CO2. At the end of the culture period, the pancreases were photographed, and fixed as described below or harvested for RNA extraction
# Total RNA was isolated from pools of at least three pancreases using the Qiagen RNeasy Microkit (Qiagen, Courtaboeuf, France) and reverse transcribed using Superscript reagents (Invitrogen). Real-time PCR was performed with the 7300 Fast real-time PCR system (Applied Bio system) using either Taqman universal PCR universal PCR master mix or SYBR green PCR master mix (Applied Biosystem) with primers and labelled probes specific for each gene. Peptidylpropyl isomerase A/Cyclophilin A was used as endogenous control and E16.5 pancreas cDNA as calibrator sample. The data were analyzed by comparative cycle threshold method (Livak et al., 1997) and presented as the fold change in gene expression. At least three pools of explants were analysed by condition.
# [2] = test system: early progenitors expressing PDX1; assay: BrdU incorporation: proliferation of early PDX1 progenitors in cultured embryonic pancreases; format: cell-based, rat; settings: 100 μM; 24 h culture, BrdU during last hour (FIG. 3D); control 31.24%±2.8%
# Method: as §2, with “Glibenclamide and nifedipine were added to the media daily. The cultures were incubated at 37° C. in a humidified atmosphere composed of 95% air and 5% CO2. At the end of the culture period, the pancreases were photographed, and fixed as described below or harvested for RNA extraction” left out
# Quantification—To quantify the surface area of insulin, glucagon, PCSK1/3, CPA and amylase-expressing cells, all sections of each pancreatic rudiment were digitized. […] The surface of insulin, glucagon, PCSK1/3, CPA, amylase, and Hoechst stainings were quantified using Iplab (Scanalytics). […] To measure proliferation of the early progenitors expressing PDX1, we counted the frequency of BrdU positive progenitors expressing PDX1 among 3000 early progenitors expressing PDX1 per rudiment. To quantify the absolute number of NGN3-expressing cells, pancreatic rudiments were sectioned and all sections were stained with an anti-NGN3 antibody. Positive cells were counted on all sections of each pancreatic rudiment. […]
# [3] = test system: E13.5 Rat embryonic pancreases; assay: Immunohistochemistry and quantification of stained surface area / cell number in cultured embryonic pancreases; format: cell-based
# From the text: as §1, §2
# Immunochemistry—The pancreatic rudiments were fixed in 10% formalin, pre-embedded in agarose gel (4% of type VII low-gelling-temperature agarose (Sigma) in H2O) and embedded in paraffin. Immunohistochemistry was performed on 4-μm paraffin sections as previously described (Duvillie et al., 2006). The primary antibodies were mouse anti insulin (1/2000; Sigma), rabbit anti-glucagon (1/1000; Diasorin), rabbit anti-amylase (1/300; Sigma), rabbit anti-carboxypeptidase A (1/600; Biogenesis, Kidlington, Oxford, UK), rabbit anti-PDX1 (1/1000) (Duvillie et al., 2003) mouse anti-BrdUrd5 (1/2; Amersham Biosciences, Buckingham, UK), rabbit anti-PCK1/3, rabbit anti-Ngn3 (1/100, Guillemain et al., 2007), rabbit anti-KIR6.2 and anti-SUR1 (1/100, Santa Cruz). The fluorescent secondary antibodies were fluorescein anti-rabbit antibody (1/200; Jackson Immunoresearch, Baltimore, Md., USA), fluorescein goat anti-rabbit Alexa Fluor 488 (1/400; Invitrogen) and Texas red anti-mouse antibody (1/200; Jackson). Nuclei were stained in blue with Hoechst 33342 (0.3 μg/ml; Invitrogen). Ngn3 detection was performed as previously described (Guillemain et al., 2007) using the Vectastain elite ABC kit (Vector laboratories).
# (§3) Quantification—To quantify the surface area of insulin, glucagon, PCSK1/3, CPA and amylase-expressing cells, all sections of each pancreatic rudiment were digitized. Alternate sections were examined to avoid counting the same cell twice. The surface of insulin, glucagon, PCSK1/3, CPA, amylase, and Hoechst stainings were quantified using Iplab (Scanalytics). The stained areas were summed to obtain the total surface area per rudiment in mm^2. To measure proliferation of the early progenitors expressing PDX1, we counted the frequency of BrdU positive progenitors expressing PDX1 among 3000 early progenitors expressing PDX1 per rudiment. To quantify the absolute number of NGN3-expressing cells, pancreatic rudiments were sectioned and all sections were stained with an anti-NGN3 antibody. Positive cells were counted on all sections of each pancreatic rudiment. A minimum of three rudiments was analyzed per condition.
# [4] = test system: E13.5 Rat embryonic pancreases; assay: E13.5 rat embryonic pancreas organ culture: growth, morphology and toxicity (Hoechst staining); format: cell-based
# From the text: as §1, §2, §3
# Using the in vitro model as described above (E13.5 Rat embryonic pancreases cultured at the air/medium interface on a floating filter), we examined the effects of increased concentrations of the sulphonylurea glibenclamide (an inhibitor of KATP channels) on pancreas development. […] Under both conditions, the epithelium grew rapidly, spread into the mesenchyme, and developed lobules. There is no difference in apoptosis in pancreases cultured 7 days without or with 10 and 100 μM glibenclamide as shown by the Hoechst staining of the nuclei (FIG. 1B).
smiles,measurement,setting,value
COc1ccc(Cl)cc1C(=O)NCCc1ccc(S(=O)(=O)NC(=O)NC2CCCCC2)cc1 [glibenclamide],Pou3F4/Brn4 mRNA level,"[1]; 100 μM, D7 (FIG. 2F)",significant increase
same,Ngn3 expression (mRNA) increase vs control,"[1]; 100 μM, after 5 days of culture, p<0.001 (FIG. 3A)",sevenfold
same,Ngn3 mRNA level vs control,"[1]; 100 μM, after the D5 peak (D7), p<0.001 (FIG. 3A)",dramatically higher
same,insulin expression (mRNA),"[1]; 100 μM, as early as D3 (FIG. 2A)",strongly reduced
same,Ngn3 expression (mRNA) vs control,"[1]; 100 μM, day 1 and 3 (FIG. 3A)",similar
same,ZnT-8 expression (mRNA),"[1]; 100 μM, over the 7 days of culture (FIG. 2B)",did not affect
same,MafA expression (mRNA),"[1]; 100 μM, over the 7 days of culture (FIG. 2C)",did not affect
same,NeuroD1 mRNA level vs control,"[1]; D5, data not shown",significantly increased
same,NeuroD1 mRNA level vs control,"[1]; D7, data not shown",reminded enhanced
same,ZnT-8 expression vs control,"[1]; Glib 5D, after 9, 11 and 14 days, p<0.01 (FIG. 4C)",dramatic increase
same,MafA expression vs control,"[1]; Glib 5D, after 9, 11 and 14 days, p<0.01 (FIG. 4D)",dramatic increase
same,insulin mRNA level vs control,"[1]; Glib-5D, D7 (FIG. 4B)",identical
same,insulin mRNA level increase vs control,"[1]; Glib-5D, D9 (FIG. 4B)",threefold
same,insulin mRNA level increase vs control,"[1]; Glib-5D, D11 (FIG. 4B)",twofold
same,insulin mRNA level increase vs control,"[1]; Glib-5D, D14 (FIG. 4B)",threefold
same,ZnT-8 expression vs control,"[1]; Glib-5D, after 7 days of culture (FIG. 4C)",similar
same,MafA expression vs control,"[1]; Glib-5D, after 7 days of culture (FIG. 4D)",similar
same,NeuroD1 mRNA levels vs control,"[1]; after 1 and 3 days of culture, data not shown",similar
same,increase in somatostatin expression,"[1]; after 7 days of culture, data not shown",two-fold
same,percentage of PDX-1+ cells that incorporate BrdU,[2],32.60%±4.2%
same,number of NGN3+ cells vs control,"[3]; 100 μM, 5 days of culture (FIG. 3B, 3C)",threefold higher; also recorded: increased number of NGN3 positive nuclei
same,surface area occupied by PCSK1/3 staining in PDX-1+ cells vs control,"[3]; 100 μM, 7 days (FIG. 2D)",similar
same,increase of the number of glucagon-expressing cells,"[3]; 100 μM, 7 days (FIG. 2E)",3.5 fold
same,decrease of surface area occupied by the insulin-cell population,"[3]; 7 days of culture, vs control, data not shown",70%
same,insulin-positive cells (insulin-staining area),"[3]; Glib 5D pancreases, data not shown",significant increase
same,insulin-containing cells,"[3]; Glib pancreases: glibenclamide during the 14-day culture period, data not shown",less
same,insulin-expressing cells,"[3]; Glib-5D: 100 μM only during first 5 days, D9, D11 or D14 (FIG. 4A)",large number
same,pancreatic growth vs control,"[4]; 10 nM, 100 nM, 1, 10 or 100 μM, 7 days of culture (FIG. 1A)",similar
same,branching of the epithelium,[4]; 100 μM (FIG. 1A),more branched
same,apoptosis (Hoechst staining of the nuclei) vs control,"[4]; 10 and 100 μM, 7 days (FIG. 1B)",no difference
same,toxicity by overall size of pancreases (Hoechst surface area),"[4]; 10 or 100 μM, 7 days (FIG. 1C)",lack of glibenclamide toxicity
same,pycnotic nuclei (Hoechst staining),"[4]; 7 days, indicated concentrations (FIG. 1B)",lack of pycnotic nuclei

# Reference: US8679842B2, “Method for increasing the pool of Ngn3+ endocrine progenitor cells and pancreatic endocrine cell mass” (Assistance Publique—Hopitaux de Paris, priority 2009, dated 2014)
